Like-named read-outs stand apart in the source and are kept apart here.
Experiments:
[1] = system: hepatitis type B virus (HBV); experiment: Inhibition of HBV DNA replication in HepG2.2.15 cells; type: cell-based
Description: The inhibitory effect of the compounds of the present invention on hepatitis type B virus (HBV) was tested. Cytotoxicity and effects on nucleic acid (DNA) replication level of the virus (HBV) of the compounds of the present invention were tested at a virus-cell level.
HepG2.2.15 cells in the logarithmic growth phase were plated in a 96-well plate at a cell concentration of 40 cells per μL. The cells were incubated in a 5% CO2 incubator at 37° C. for 3 days; and the culture medium was replaced with a new one ([…]) before adding compounds. The concentration of the stock solution of each Example compound is 200 μM.

[2] = target: T1, hERG potassium ion channel (Homo sapiens, UniProt Q12809); experiment: Predictor hERG Fluorescence Polarization Assay; type: binding; conditions: hERG fluorescence polarization
T1 construct: purchased
Source text: In cardiac muscle cells, hERG (human Ether-a-go-go Related Gene) coded potassium channel mediates delayed rectifier potassium currents (IKr). IKr inhibition is the most important mechanism of QT interval prolongation caused by a drug.
Employing the Predictor™ hERG Fluorescence Polarization Assay, the effect of the compounds on a hERG potassium ion channel was detected.

HepG2.2.15 cells = experiment: Cytotoxicity detection (CellTiter-Glo); type: cell-based; conditions: 4 days, highest concentration 150 μM
Description: (§1) The test compounds were diluted to 30 mM with DMSO, with 30 mM as the highest concentration, the compounds were subjected to three-fold serial dilution to various concentrations. 0.2 μL of the compounds at various concentrations were added to a 384-well plate, HepG2.2.15 cells having a concentration of 2000 cells per 50 μL were added to each well, and the highest concentration of the test compounds was 150 μM. 1 μL of DMSO was added to corresponding wells for control. The plate was incubated in a 5% CO2 incubator at 37° C. for 4 days; and 50 μL of CellTiter-Glo was added to each well after 4 days. The plate was read for detection, and a half cytotoxic concentration (CC50) was calculated.

[3] = In vivo pharmacokinetics (PK) in rats; conditions: male, SD, rat; for Kp: liver/plasma, 2 mg/kg
Description: (§2) The test compounds were administrated to male SD rats by intravenous (iv) and by gavage (po), respectively, the doses of the iv and po administration were respectively 1 mg/kg and 2 mg/kg, the solvent system for iv administration was 5% DMSO:5% solutol:90% physiological saline, and the solvent system for po administration was 0.5% MC. Blood was collected at multiple time points after iv administration and po administration for the PK study. Plasma samples and liver tissue samples were subjected to protein precipitation, followed by LC-MS/MS analysis. The mass spectrometer was API 5500, and the liquid chromatograph is a Waters ACQUITY I CLASS system; the chromatographic column was an Agela ASB C18 column (2.1 mm×50 mm, 1.9 μm); mobile phase A was water+0.1% formic acid, and phase B was acetonitrile; the flow rate was 0.4 mL/min, and the column temperature was 40° C. The ion source was an ESI source in a positive ion mode, and the scanning manner is multiple reaction monitoring (MRM).

[4] = Cytotoxicity detection (CellTiter-Glo); type: cell-based; conditions: human, HepG2.2.15 cells, highest concentration 150 μM
Description: as §1

CYP3A4 = CYP3A4 induction test (HepG2 C3A/pCYP3A4-Luc, C8 cells, luciferase); type: cell-based; conditions: human, HepG2 C3A/pCYP3A4-Luc, C8 cells; CYP3A4 induction, 72 hours
Description: (§3) A test tube of HepG2 C3A/pCYP3A4-Luc, C8 cells was taken out of a liquid nitrogen tank, the cells were recovered in a sterile water bath at 37° C.; and the test tube was gently shaken until ice completely melted. The recovered cells were transferred to a 15 mL sterile centrifuge tube, and 5-10 mL pre-heated basal cell culture medium at 37° C. was added; the cells were naturally settled for 2 minutes and centrifuged (1000 rpm) for 8 minutes. The supernatant was discarded, and the cells were re-suspended with 10 mL pre-heated cell culture medium. The cell suspension was transferred to a 10 cm cell-culture dish and incubated in a 5% CO2 incubator at 37° C. The original cell culture medium was replaced with a selective cell culture medium after 24 hours. The cells were digested after growing in 80%-90% of the culture dish, and then transferred to a 15 mL sterile centrifuge tube. Centrifugation was performed at 1000 rpm for 8 minutes, and the cells were collected. The supernatant was discarded, and the cells were re-suspended with 3 mL pre-heated complete medium. […] The supernatant was discarded, the cells were re-suspended and counted, and the suspension was diluted to 4×10^5 cells per mL. […] The fluorescence signal was measured on a plate reader. A concentration curve of the tested compounds was plotted by using software Prism 5, and the EC50 values were calculated.

CYP450 isoform 3A4 = experiment: as above; type: cell-based; conditions: at a concentration of 10 μM
Description: as §3

[5] = In vivo pharmacokinetics (PK) in cynomolgus macaques; set-up: species or system male cynomolgus macaques; conditions: cynomolgus macaque
Description: as §2, with “male cynomolgus macaques” for “male SD rats”, “respectively 0.5” for “respectively 1”, “and 2.5” for “and 2”, “samples” for “samples and liver tissue samples”, “5500,” for “5500, and”, “chromatograph was” for “chromatograph is”

hepatitis B virus = experiment: Mouse HBV model via tail vein hydrodynamic injection (HDI); type: in vivo, female BALB/c mice
Description: The in vivo inhibitory effect on hepatitis B virus of the compound of the present invention was evaluated by employing a mouse HBV model via tail vein hydrodynamic injection (HDI).
A suspension of compound 10-227 of the present invention was prepared with a 0.5% MC solution as the solvent. Female BALB/c mice were injected with pAAV2-HBV 1.3mer (type D) plasmid DNA via tail vein hydrodynamic injection, and then divided into the control group, test group 1 and test group 2 (5 mice in each group). Oral gavage administration was initiated one day later. The control group was given the 0.5% MC solution each time. The test groups 1 and 2 each time were given compound 10-227 (in the form of the suspension prepared above) at a dosage of 1 mg/kg and 3 mg/kg, respectively. The administration was continued for 7 days, twice a day, at an administration interval of 10 hours or 14 hours. Mouse plasma was collected at different time points (e.g., 1 day, 3 days, 5 days or 7 days after the HDI), and the HBV DNA levels in the plasma samples were detected by the RT-qPCR method.
In addition, throughout the entire in vivo test, the weight and body condition of the mice were measured and observed everyday according to an IACUC (Institutional Animal Care and Use Committee) protocol.

[6] = In vivo pharmacokinetics (PK) in Beagle dogs; set-up: species or system male Beagle dogs; conditions: Beagle dog
Description: as §2, with “male Beagle dogs” for “male SD rats”, “respectively 0.5” for “respectively 1”, “and 2.5” for “and 2”, “samples” for “samples and liver tissue samples”, “chromatograph was” for “chromatograph is”

[7] = HepG2.2.15, HBV DNA replication
[8] = male, cynomolgus monkey, 0.5 mg/kg, iv, 0.50 mg/kg, plasma
[9] = male, cynomolgus monkey, 2.5 mg/kg, po, 2.50 mg/kg, plasma
[10] = male, 0.5 mg/kg, iv, 0.50 mg/kg, plasma
[11] = male, 2.5 mg/kg, po, 2.50 mg/kg, plasma

T1 sequence (Q12809 whole entry): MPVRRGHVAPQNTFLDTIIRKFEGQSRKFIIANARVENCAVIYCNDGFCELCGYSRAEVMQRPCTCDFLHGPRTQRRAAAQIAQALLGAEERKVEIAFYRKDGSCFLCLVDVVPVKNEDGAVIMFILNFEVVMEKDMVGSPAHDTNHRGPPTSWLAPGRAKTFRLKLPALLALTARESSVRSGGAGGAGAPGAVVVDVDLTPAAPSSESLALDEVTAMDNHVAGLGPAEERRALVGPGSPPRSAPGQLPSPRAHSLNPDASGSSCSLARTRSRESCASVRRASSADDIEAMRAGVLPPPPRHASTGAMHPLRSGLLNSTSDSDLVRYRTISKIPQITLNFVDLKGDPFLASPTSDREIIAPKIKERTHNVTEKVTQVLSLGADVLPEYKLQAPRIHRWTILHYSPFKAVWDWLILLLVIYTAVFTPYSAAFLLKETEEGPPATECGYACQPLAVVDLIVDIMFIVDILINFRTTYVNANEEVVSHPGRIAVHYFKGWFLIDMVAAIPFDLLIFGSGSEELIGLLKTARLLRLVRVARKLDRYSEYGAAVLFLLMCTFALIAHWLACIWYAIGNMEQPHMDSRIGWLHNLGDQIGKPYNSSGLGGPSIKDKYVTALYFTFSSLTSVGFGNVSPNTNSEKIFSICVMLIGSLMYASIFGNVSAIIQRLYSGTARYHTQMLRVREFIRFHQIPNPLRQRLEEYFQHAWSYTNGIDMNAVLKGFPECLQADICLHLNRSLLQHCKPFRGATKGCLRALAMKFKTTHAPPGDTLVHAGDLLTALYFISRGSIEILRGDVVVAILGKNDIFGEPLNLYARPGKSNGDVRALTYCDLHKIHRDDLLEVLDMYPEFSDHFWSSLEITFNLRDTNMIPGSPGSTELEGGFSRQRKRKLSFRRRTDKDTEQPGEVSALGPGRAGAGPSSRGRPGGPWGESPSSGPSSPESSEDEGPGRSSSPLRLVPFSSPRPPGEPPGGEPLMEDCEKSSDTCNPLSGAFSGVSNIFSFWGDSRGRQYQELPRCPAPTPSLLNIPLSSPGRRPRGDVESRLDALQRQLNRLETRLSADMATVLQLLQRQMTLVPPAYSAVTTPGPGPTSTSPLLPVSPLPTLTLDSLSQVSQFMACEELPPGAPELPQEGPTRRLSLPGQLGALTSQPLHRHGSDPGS

Compound `CCOC(=O)C1=C(CN2CCC(O)C(F)(F)C2)NC(c2nccs2)=N[C@H]1c1ccc(F)cc1Cl` (single isomer, unassigned) [Isomer A of Example 4] has an EC50 ([1]; HBV DNA replication) of 0.0351 µM, an IC50 [2] of over 10 µM and a CC50 (HepG2.2.15 cells) of 43.9 µM.

In the case of `CCOC(=O)C1=C(CN2CCO[C@H](/C=C/C(=O)O)C2)NC(c2nccs2)=N[C@H]1c1ccc(F)cc1Cl` [10-226 of Example 25, (E)-3-((R)-4-(((R)-6-(2-chloro-4-fluorophenyl)-5-(ethoxycarbonyl)-2-(thiazol-2-yl)-3,6-dihydropyrimidin-4-yl)methyl)morpholin-2-yl)acrylic Acid], the EC50 [1, 7] is reported as 0.0092 µM, the bioavailability ([3]; plasma, po, by gavage, 2.00 mg/kg, read-out: bioavailability (F)) is reported as 47.6% and the AUC(0-inf) ([3]; iv, 1.00 mg/kg, plasma) is reported as 2400 ng·h/mL. The Cmax ([3]; iv, 1.00 mg/kg, plasma) was 2890 ng/mL, the AUC(0-inf) ([3]; po, 2.00 mg/kg, liver) was 3030 ng·h/mL and the Cmax ([3]; po, 2.00 mg/kg, liver) was 1690 ng/mL. It also gave an AUC(0-inf) ([3]; po, 2.00 mg/kg, plasma) of 2290 ng·h/mL, a Cmax ([3]; po, 2.00 mg/kg, plasma) of 2180 ng/mL and an IC50 [2] of over 10 µM. The CC50 at 4 days [4] was over 150 µM.

With `COC(=O)C1=C(CN2CCO[C@H](/C=C/C(=O)O)C2)NC(c2nccs2)=N[C@H]1c1ccc(F)cc1Cl` [10-227 of Example 27, (E)-3-((R)-4-(((R)-6-(2-chloro-4-fluorophenyl)-5-(methoxycarbonyl)-2-(thiazol-2-yl)-3,6-dihydropyrimidin-4-yl)methyl)morpholin-2-yl)acrylic Acid] the EC50 at 72 h (CYP3A4) was 123 µM, the “inductive effect on CYP450 isoform 3A4 relative to rifampicin” value (CYP450 isoform 3A4) was “about 29%” and the “amount of exposure in plasma relative to control compound 3” value ([5]; by gavage, 2.50 mg/kg) was “about 21 times”. For the same compound, the “blood-drug concentration relative to control compound 3” value ([5]; by gavage, 2.50 mg/kg) was “about 33 times”, the AUC(0-inf) [5, 8] was 2460 ng·h/mL and the AUC(0-t) [5, 8] was 2440 ng·h/mL. It also gave a Cmax [5, 8] of 1670 ng/mL, an AUC(0-inf) [5, 9] of 4570 ng·h/mL and an AUC(0-t) [5, 9] of 4420 ng·h/mL. The Cmax [5, 9] was 1070 ng/mL, the bioavailability ([5]; male, cynomolgus monkey, plasma, po, 2.5 mg/kg, by gavage, 2.50 mg/kg, read-out: bioavailability (F)) was 37.2% and the EC50 [1, 7] was 0.01 µM. The “HBV DNA level in plasma” value (hepatitis B virus; Test group 1, 1 mg/kg oral gavage twice a day, 1 day after HDI) was 1.95 ± 0.09 log (HBV DNA copies/μl), the “HBV DNA level in plasma” value (hepatitis B virus; Test group 1, 1 mg/kg oral gavage twice a day, 3 days after HDI) was 2.28 ± 0.17 log (HBV DNA copies/μl) and the “HBV DNA level in plasma” value (hepatitis B virus; Test group 1, 1 mg/kg oral gavage twice a day, 5 days after HDI) was 2.77 ± 0.11 log (HBV DNA copies/μl). The “HBV DNA level in plasma” value (hepatitis B virus; Test group 1, 1 mg/kg oral gavage twice a day, 7 days after HDI) was 2.77 ± 0.14 log (HBV DNA copies/μl), the “HBV DNA level in plasma” value (hepatitis B virus; Test group 2, 3 mg/kg oral gavage twice a day, 1 day after HDI) was 1.99 ± 0.09 log (HBV DNA copies/μl) and the “HBV DNA level in plasma” value (hepatitis B virus; Test group 2, 3 mg/kg oral gavage twice a day, 3 days after HDI) was 1.95 ± 0.15 log (HBV DNA copies/μl). For the same compound, the “HBV DNA level in plasma” value (hepatitis B virus; Test group 2, 3 mg/kg oral gavage twice a day, 5 days after HDI) was 1.57 ± 0.08 log (HBV DNA copies/μl), the “HBV DNA level in plasma” value (hepatitis B virus; Test group 2, 3 mg/kg oral gavage twice a day, 7 days after HDI) was 1.42 ± 0.31 log (HBV DNA copies/μl) and the “variation in body weight” value (hepatitis B virus; mice, during 7 days of administration, 1 and 3 mg/kg) was under 10%. The IC50 [2] was over 10 µM, the “amount of exposure in plasma relative to control compound 3” value ([6]; by gavage, 2.50 mg/kg) was “about 14 times” and the “blood-drug concentration relative to control compound 3” value ([6]; by gavage, 2.50 mg/kg) was “about 6 times”. It also gave an AUC(0-inf) [6, 10] of 8750 ng·h/mL, an AUC(0-t) [6, 10] of 8690 ng·h/mL and a Cmax [6, 10] of 2310 ng/mL. The AUC(0-inf) [6, 11] was 33200 ng·h/mL, the AUC(0-t) [6, 11] was 32900 ng·h/mL and the Cmax [6, 11] was 7200 ng/mL. For the same compound, the bioavailability ([6]; male, plasma, po, 2.5 mg/kg, by gavage, 2.50 mg/kg, read-out: bioavailability (F)) was 75.9% and the CC50 at 4 days [4] was over 150 µM.

For `CCOC(=O)C1=C(CN2C[C@@H](/C=C/C(=O)O)CC(F)(F)C2)NC(c2nccs2)=N[C@H]1c1ccc(F)cc1Cl` [10-230 of Example 26, (E)-3-((R)-1-(((R)-6-(2-chloro-4-fluorophenyl)-5-(ethoxycarbonyl)-2-(thiazol-2-yl)-3,6-dihydropyrimidin-4-yl)methyl)-5,5-difluoropiperidin-3-yl)acrylic Acid], the EC50 [1, 7] was 0.0112 µM, the Kp ([3]; po, po, 2.00 mg/kg, AUCINF liver/plasma, read-out: amount of exposure in liver relative to that in plasma) was about 10 and the Kp ([3]; po, po, 2.00 mg/kg, Cmax liver/plasma, read-out: blood-drug concentration in liver relative to that in plasma) was about 10. For the same compound, the AUC(0-inf) ([3]; po, 2.00 mg/kg, liver) was 2340 ng·h/mL, the Cmax ([3]; po, 2.00 mg/kg, liver) was 1520 ng/mL and the AUC(0-inf) ([3]; po, 2.00 mg/kg, plasma) was 236 ng·h/mL. The Cmax ([3]; po, 2.00 mg/kg, plasma) was 179 ng/mL, the IC50 [2] was over 10 µM and the CC50 at 4 days [4] was 137 µM.

— US11166954B2, “Dihydropyrimidine compound and preparation method and use thereof” (SICHUAN KELUN-BIOTECH BIOPHARMACEUTICAL CO., LTD., priority 2016, dated 2021)
